Measured values reported in PMC10682951, “Structure-function and rational design of a spider toxin Ssp1a at human voltage-gated sodium channel subtypes” (Frontiers in Pharmacology, 2023).
Bridge positions count the residues as written; N and C are the ends. Peptide text beside a SMILES is read from it.

How the values were obtained:
Assay type in all cases: cell-based
hNaV1.3 = target: T1, hNaV1.3 (Homo sapiens, UniProt Q9NY46); test: Automated whole-cell patch-clamp (QPatch 16X), hNaV1.3; details: HEK293 cells expressing hNaV1.3 + β1 subunit; QPatch 16X; holding −80 mV, step to 0 mV; peptide incubated 2 min; 0.1% BSA; mean, SEM and n (3-12)
T1 construct: host or cells: HEK293
Method in brief: (§1)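 HEK293 cells stably expressing the channel (human subtypes with β1 subunit), held at −80 mV; 2 min peptide pre-incubation, then 20 ms steps to 0 mV after a 200 ms −120 mV conditioning pulse. Extracellular pH 7.3 with 20 mM TEA-Cl, CsF-based pipette solution, 0.1% BSA; IC50 from four-parameter Hill fit.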

hNaV1.2 = target: T2, hNaV1.2 (Homo sapiens, UniProt Q99250); test: Automated whole-cell patch-clamp (QPatch 16X), hNaV1.2; details: for IC50: HEK293 cells expressing hNaV1.2 + β1 subunit, QPatch 16X, holding −80 mV, step to 0 mV, peptide incubated 2 min, 0.1% BSA, mean, SEM and n (2-7); for Loss (reduction) in potency vs rSsp1a at hNaV1.2: relative to wild type rSsp1a
T2 construct: host or cells: HEK293
Method in brief: as §1

hNaV1.7 = target: T3, hNaV1.7 (Homo sapiens, UniProt Q15858); test: Automated whole-cell patch-clamp (QPatch 16X), hNaV1.7; details: for IC50: HEK293 cells expressing hNaV1.7 + β1 subunit, QPatch 16X, holding −80 mV, step to 0 mV, peptide incubated 2 min, 0.1% BSA, mean, SEM and n (3-9); for Loss (reduction) in potency vs rSsp1a at hNaV1.7: relative to wild type rSsp1a
T3 construct: host or cells: HEK293
Method in brief: as §1

T3 sequence (Q15858 whole entry): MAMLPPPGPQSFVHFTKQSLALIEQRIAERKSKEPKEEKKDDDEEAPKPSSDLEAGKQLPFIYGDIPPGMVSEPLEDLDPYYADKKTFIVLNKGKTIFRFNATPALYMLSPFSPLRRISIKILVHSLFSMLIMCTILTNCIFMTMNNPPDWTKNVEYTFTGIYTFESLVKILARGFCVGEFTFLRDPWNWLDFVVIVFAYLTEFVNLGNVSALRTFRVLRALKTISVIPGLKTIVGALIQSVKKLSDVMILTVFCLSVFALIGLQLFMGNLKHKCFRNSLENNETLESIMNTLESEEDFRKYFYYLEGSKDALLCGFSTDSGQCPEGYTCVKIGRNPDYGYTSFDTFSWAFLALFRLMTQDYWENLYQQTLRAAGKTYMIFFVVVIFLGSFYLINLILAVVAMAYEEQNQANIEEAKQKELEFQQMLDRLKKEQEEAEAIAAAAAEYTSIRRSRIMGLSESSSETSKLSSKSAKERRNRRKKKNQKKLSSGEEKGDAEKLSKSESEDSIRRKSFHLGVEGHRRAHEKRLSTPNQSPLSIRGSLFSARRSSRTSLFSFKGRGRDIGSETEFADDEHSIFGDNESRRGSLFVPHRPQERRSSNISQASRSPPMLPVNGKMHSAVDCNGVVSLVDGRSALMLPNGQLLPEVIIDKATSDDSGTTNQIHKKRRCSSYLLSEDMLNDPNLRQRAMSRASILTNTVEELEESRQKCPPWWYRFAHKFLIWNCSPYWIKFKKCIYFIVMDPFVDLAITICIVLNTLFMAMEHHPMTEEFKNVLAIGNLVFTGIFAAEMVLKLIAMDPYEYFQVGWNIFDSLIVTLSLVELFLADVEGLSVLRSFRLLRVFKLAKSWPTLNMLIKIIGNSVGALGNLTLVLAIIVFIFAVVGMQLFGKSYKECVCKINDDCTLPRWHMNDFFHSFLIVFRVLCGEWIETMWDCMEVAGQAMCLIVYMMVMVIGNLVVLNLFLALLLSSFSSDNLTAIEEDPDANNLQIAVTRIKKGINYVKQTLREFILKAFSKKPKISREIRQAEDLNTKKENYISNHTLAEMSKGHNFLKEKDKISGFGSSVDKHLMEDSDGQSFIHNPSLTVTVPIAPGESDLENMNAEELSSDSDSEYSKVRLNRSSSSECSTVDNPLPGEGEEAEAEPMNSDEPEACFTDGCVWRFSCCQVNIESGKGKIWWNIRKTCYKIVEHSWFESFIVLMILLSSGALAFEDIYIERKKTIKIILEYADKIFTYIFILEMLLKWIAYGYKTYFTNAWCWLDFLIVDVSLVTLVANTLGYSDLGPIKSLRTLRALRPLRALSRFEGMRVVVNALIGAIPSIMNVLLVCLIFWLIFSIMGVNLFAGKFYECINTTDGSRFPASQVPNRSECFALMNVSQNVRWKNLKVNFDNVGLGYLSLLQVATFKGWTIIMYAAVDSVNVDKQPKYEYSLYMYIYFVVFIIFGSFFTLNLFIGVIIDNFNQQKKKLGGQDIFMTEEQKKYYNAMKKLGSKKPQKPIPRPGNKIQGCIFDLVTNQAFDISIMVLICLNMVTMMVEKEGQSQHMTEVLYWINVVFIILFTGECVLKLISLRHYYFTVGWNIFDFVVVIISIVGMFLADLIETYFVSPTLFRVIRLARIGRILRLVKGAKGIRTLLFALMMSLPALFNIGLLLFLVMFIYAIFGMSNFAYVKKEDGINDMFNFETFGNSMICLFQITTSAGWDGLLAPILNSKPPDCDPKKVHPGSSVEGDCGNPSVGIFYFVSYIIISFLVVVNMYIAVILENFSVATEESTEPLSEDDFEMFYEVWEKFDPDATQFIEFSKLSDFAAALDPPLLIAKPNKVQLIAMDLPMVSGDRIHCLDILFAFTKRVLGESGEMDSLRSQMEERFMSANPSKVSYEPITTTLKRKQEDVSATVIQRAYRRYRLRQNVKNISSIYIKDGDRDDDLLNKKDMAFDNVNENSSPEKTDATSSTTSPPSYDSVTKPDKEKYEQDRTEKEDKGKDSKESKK
T3 sequence (Q07699 19-218, further chain): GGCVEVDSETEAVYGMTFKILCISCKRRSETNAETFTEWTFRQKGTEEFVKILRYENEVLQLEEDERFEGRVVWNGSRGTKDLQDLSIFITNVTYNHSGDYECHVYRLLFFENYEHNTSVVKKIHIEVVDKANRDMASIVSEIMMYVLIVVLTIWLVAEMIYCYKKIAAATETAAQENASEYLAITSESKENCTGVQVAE
T2 sequence (Q07699 19-218): as the sequence (Q07699 19-218, further chain) above
T2 sequence (Q99250 whole entry): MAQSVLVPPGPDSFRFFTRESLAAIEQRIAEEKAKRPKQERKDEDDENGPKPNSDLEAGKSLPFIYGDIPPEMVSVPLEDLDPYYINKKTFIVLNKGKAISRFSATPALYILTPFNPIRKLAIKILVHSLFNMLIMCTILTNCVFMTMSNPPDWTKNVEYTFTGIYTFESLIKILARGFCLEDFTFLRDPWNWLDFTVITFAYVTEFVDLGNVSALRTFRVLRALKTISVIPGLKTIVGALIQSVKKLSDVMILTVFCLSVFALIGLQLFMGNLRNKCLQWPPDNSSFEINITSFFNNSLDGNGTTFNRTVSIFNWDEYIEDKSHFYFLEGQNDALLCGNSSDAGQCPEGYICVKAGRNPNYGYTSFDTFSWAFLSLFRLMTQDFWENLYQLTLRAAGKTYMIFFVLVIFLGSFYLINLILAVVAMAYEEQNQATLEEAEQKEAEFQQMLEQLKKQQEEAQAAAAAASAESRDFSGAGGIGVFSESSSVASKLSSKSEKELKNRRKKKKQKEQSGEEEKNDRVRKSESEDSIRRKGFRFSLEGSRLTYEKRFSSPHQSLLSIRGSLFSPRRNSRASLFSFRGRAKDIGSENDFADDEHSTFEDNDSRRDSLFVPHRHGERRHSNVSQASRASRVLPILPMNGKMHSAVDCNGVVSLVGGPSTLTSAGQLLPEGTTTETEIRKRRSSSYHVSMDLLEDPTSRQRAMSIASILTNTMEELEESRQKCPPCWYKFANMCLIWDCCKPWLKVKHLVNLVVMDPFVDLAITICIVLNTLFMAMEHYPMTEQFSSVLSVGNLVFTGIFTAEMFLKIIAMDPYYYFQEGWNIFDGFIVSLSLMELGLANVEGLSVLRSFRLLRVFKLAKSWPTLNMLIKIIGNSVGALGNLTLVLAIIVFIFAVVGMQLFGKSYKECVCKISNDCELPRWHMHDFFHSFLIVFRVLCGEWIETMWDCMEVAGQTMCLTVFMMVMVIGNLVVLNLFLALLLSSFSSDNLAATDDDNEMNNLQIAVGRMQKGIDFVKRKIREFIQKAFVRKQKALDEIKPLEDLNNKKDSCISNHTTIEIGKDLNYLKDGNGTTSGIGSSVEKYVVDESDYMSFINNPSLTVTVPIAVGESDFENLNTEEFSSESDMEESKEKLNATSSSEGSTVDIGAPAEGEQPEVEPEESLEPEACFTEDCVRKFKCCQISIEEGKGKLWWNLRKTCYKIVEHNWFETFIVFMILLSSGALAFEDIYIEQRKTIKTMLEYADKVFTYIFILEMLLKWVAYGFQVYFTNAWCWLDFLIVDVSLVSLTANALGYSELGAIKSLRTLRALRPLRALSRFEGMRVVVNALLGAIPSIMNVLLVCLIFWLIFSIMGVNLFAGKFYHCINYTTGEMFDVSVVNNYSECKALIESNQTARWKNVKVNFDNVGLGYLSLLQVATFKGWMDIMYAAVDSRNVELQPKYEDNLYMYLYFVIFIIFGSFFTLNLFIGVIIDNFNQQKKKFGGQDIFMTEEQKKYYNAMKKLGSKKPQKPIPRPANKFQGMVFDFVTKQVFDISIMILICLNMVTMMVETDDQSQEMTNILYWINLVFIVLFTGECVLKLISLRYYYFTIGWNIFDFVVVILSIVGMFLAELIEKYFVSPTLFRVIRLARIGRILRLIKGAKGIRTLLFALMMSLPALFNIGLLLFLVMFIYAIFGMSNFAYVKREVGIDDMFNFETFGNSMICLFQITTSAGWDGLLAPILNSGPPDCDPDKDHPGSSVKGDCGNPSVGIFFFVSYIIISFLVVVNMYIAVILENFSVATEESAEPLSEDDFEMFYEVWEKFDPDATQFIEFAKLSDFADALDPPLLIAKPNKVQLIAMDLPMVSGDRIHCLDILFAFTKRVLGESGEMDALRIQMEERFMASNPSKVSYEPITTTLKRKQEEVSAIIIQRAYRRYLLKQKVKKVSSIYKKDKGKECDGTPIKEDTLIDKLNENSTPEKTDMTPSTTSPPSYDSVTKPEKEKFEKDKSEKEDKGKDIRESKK

SMILES | IC50 (hNaV1.3) [µM] | IC50 (hNaV1.2) [µM] | Loss (reduction) in potency vs rSsp1a at hNaV1.2 (hNaV1.2) [fold] | IC50 (hNaV1.7) [µM] | Loss (reduction) in potency vs rSsp1a at hNaV1.7 (hNaV1.7) [fold]
CC(C)C[C@H](NC(=O)[C@H](CC(=O)O)NC(=O)[C@H](Cc1ccc(O)cc1)NC(=O)[C@H](CCCNC(=N)N)NC(=O)[C@@H]1CSSC[C@@H]2NC(=O)[C@H](CCCCN)NC(=O)[C@H](CC(N)=O)NC(=O)[C@H](CC(N)=O)NC(=O)[C@H](CC(N)=O)NC(=O)[C@@H]3CCCN3C(=O)[C@H](CC(=O)O)NC(=O)[C@@H]3CSSC[C@H](NC(=O)[C@H](C(C)C)NC(=O)[C@H](Cc4ccc(O)cc4)NC(=O)CNC(=O)[C@H](CCC(=O)O)NC(=O)[C@H](CSSC[C@H](NC(=O)[C@H](CC(=O)O)NC(=O)CN)C(=O)N[C@@H](CC(C)C)C(=O)NCC(=O)N[C@@H](Cc4c[nH]c5ccccc45)C(=O)N[C@@H](C)C(=O)N[C@@H](CO)C(=O)NCC(=O)N3)NC2=O)C(=O)N[C@@H](Cc2c[nH]cn2)C(=O)N[C@@H](Cc2c[nH]c3ccccc23)C(=O)N[C@@H](CCCCN)C(=O)N[C@@H](Cc2ccc(O)cc2)C(=O)N2CCC[C@H]2C(=O)N[C@@H](Cc2c[nH]c3ccccc23)C(=O)N1)C(=O)O [F6A] (H-GDCLGWASGCDPNNNKCCEGYVCHWKYPWCRYDL-OH; disulfide 3-18, 10-23, 17-30 (inferred); N-terminus and C-terminus assumed) | > 1 | > 1 | ≥ 10 | > 1 | ≥ 10
CC(C)C[C@H](NC(=O)[C@H](CC(=O)O)NC(=O)[C@H](Cc1ccc(O)cc1)NC(=O)[C@H](CCCNC(=N)N)NC(=O)[C@@H]1CSSC[C@@H]2NC(=O)[C@H](CCCCN)NC(=O)[C@H](CC(N)=O)NC(=O)[C@H](CC(N)=O)NC(=O)[C@H](CC(N)=O)NC(=O)[C@@H]3CCCN3C(=O)[C@H](CC(=O)O)NC(=O)[C@@H]3CSSC[C@H](NC(=O)[C@H](C(C)C)NC(=O)[C@H](Cc4ccc(O)cc4)NC(=O)CNC(=O)[C@H](CCC(=O)O)NC(=O)[C@H](CSSC[C@H](NC(=O)[C@H](CC(=O)O)NC(=O)CN)C(=O)N[C@@H](CC(C)C)C(=O)NCC(=O)N[C@@H](Cc4c[nH]c5ccccc45)C(=O)N[C@@H](Cc4ccccc4)C(=O)N[C@@H](CO)C(=O)NCC(=O)N3)NC2=O)C(=O)N[C@@H](CO)C(=O)N[C@@H](Cc2c[nH]c3ccccc23)C(=O)N[C@@H](CCCCN)C(=O)N[C@@H](Cc2ccc(O)cc2)C(=O)N2CCC[C@H]2C(=O)N[C@@H](Cc2c[nH]c3ccccc23)C(=O)N1)C(=O)O [H23S] | 0.679 | 0.156 | – | 0.198 | –
CC(C)C[C@H](NC(=O)[C@H](CC(=O)O)NC(=O)[C@H](Cc1ccc(O)cc1)NC(=O)[C@H](CCCNC(=N)N)NC(=O)[C@@H]1CSSC[C@@H]2NC(=O)[C@H](CCCCN)NC(=O)[C@H](CC(N)=O)NC(=O)[C@H](CC(N)=O)NC(=O)[C@H](CC(N)=O)NC(=O)[C@@H]3CCCN3C(=O)[C@H](CC(=O)O)NC(=O)[C@@H]3CSSC[C@H](NC(=O)[C@H](C(C)C)NC(=O)[C@H](Cc4ccc(O)cc4)NC(=O)CNC(=O)[C@H](CCC(=O)O)NC(=O)[C@H](CSSC[C@H](NC(=O)[C@H](CC(=O)O)NC(=O)CN)C(=O)N[C@@H](CC(C)C)C(=O)NCC(=O)N[C@@H](Cc4c[nH]c5ccccc45)C(=O)N[C@@H](Cc4ccccc4)C(=O)N[C@@H](CCCCN)C(=O)NCC(=O)N3)NC2=O)C(=O)N[C@@H](Cc2c[nH]cn2)C(=O)N[C@@H](Cc2c[nH]c3ccccc23)C(=O)N[C@@H](CCCCN)C(=O)N[C@@H](Cc2ccc(O)cc2)C(=O)N2CCC[C@H]2C(=O)N[C@@H](Cc2c[nH]c3ccccc23)C(=O)N1)C(=O)O [S7K] | 0.929 | 0.201 | – | 0.181 | –
CC(C)C[C@H](NC(=O)[C@H](CC(=O)O)NC(=O)[C@H](Cc1ccc(O)cc1)NC(=O)[C@H](CCCNC(=N)N)NC(=O)[C@@H]1CSSC[C@@H]2NC(=O)[C@H](CCCCN)NC(=O)[C@H](CC(N)=O)NC(=O)[C@H](CC(N)=O)NC(=O)[C@H](CC(N)=O)NC(=O)[C@@H]3CCCN3C(=O)[C@H](CC(=O)O)NC(=O)[C@@H]3CSSC[C@H](NC(=O)[C@H](C(C)C)NC(=O)[C@H](Cc4ccc(O)cc4)NC(=O)CNC(=O)[C@H](CCC(=O)O)NC(=O)[C@H](CSSC[C@H](NC(=O)[C@H](CC(=O)O)NC(=O)CN)C(=O)N[C@@H](CC(C)C)C(=O)NCC(=O)N[C@@H](C)C(=O)N[C@@H](Cc4ccccc4)C(=O)N[C@@H](CO)C(=O)NCC(=O)N3)NC2=O)C(=O)N[C@@H](Cc2c[nH]cn2)C(=O)N[C@@H](Cc2c[nH]c3ccccc23)C(=O)N[C@@H](CCCCN)C(=O)N[C@@H](Cc2ccc(O)cc2)C(=O)N2CCC[C@H]2C(=O)N[C@@H](Cc2c[nH]c3ccccc23)C(=O)N1)C(=O)O [W5A] (H-GDCLGAFSGCDPNNNKCCEGYVCHWKYPWCRYDL-OH; disulfide 3-18, 10-23, 17-30 (inferred); N-terminus and C-terminus assumed) | > 1 | > 1 | ≥ 10 | > 1 | ≥ 10
CC(C)C[C@H](NC(=O)[C@H](CC(=O)O)NC(=O)[C@H](Cc1ccc(O)cc1)NC(=O)[C@H](CCCNC(=N)N)NC(=O)[C@@H]1CSSC[C@@H]2NC(=O)[C@H](CCCCN)NC(=O)[C@H](CC(N)=O)NC(=O)[C@H](CC(N)=O)NC(=O)[C@H](CC(N)=O)NC(=O)[C@@H]3CCCN3C(=O)[C@H](CC(=O)O)NC(=O)[C@@H]3CSSC[C@H](NC(=O)[C@H](C(C)C)NC(=O)[C@H](Cc4ccc(O)cc4)NC(=O)CNC(=O)[C@H](CCC(=O)O)NC(=O)[C@H](CSSC[C@H](NC(=O)[C@H](CC(=O)O)NC(=O)CN)C(=O)N[C@@H](CC(C)C)C(=O)NCC(=O)N[C@@H](Cc4c[nH]c5ccccc45)C(=O)N[C@@H](Cc4ccccc4)C(=O)N[C@@H](CO)C(=O)NCC(=O)N3)NC2=O)C(=O)N[C@@H](Cc2c[nH]cn2)C(=O)N[C@@H](Cc2c[nH]c3ccccc23)C(=O)N[C@@H](CCCCN)C(=O)N[C@@H](C)C(=O)N2CCC[C@H]2C(=O)N[C@@H](Cc2c[nH]c3ccccc23)C(=O)N1)C(=O)O [Y26A] (H-GDCLGWFSGCDPNNNKCCEGYVCHWKAPWCRYDL-OH; disulfide 3-18, 10-23, 17-30 (inferred); N-terminus and C-terminus assumed) | > 1 | > 1 | ≥ 10 | > 1 | ≥ 10
